SMILES strings stand for the structures.

The nature of this series: dissolution test of metal complexes in protic polar solvents. The format is physicochemical. Further details: key to dissolution test, 7.5 g/L: a case where an undissolved remnant was present was evaluated as “X”; a case where a slight undissolved remnant was present was evaluated as “Δ”; a case of complete dissolution was evaluated as “ο”. The method, then:
The metal complexes obtained in [1] were each dissolved in a protic polar solvent shown in Table 1 to produce a liquid material for constructing the electron transport layer of an organic electroluminescent element.
For example, Metal complex L101-Cs was dissolved in 1-heptanol to prepare alcohol solutions of 7.5 g/L to 15 g/L.
In Table 1, a case where an undissolved remnant was present was evaluated as “X”, a case where a slight undissolved remnant was present was evaluated as “Δ”, and a case of complete dissolution was evaluated as “ο”.

For the molecule `Oc1cccc2c1nc(-c1ccccc1)n2-c1cccc(-c2ccc3ccc4cccnc4c3n2)c1` [L101-Cs], the “dissolution test, 7.5 g/L” value (1-Heptanol) is “○”. For `O=P(c1ccccc1)(c1ccc2ccc3cccnc3c2n1)c1ccc(O)c2c1oc1cccnc12` (stereo not drawn) [L302-Rb], for the setting “1-Heptanol”, the “dissolution test, 7.5 g/L” value is listed as “○” and the “dissolution test, 15 g/L” value is recorded as “○”.

Consider `Oc1ccc(-c2ccc3ccc4cccnc4c3n2)c2c1nc(-c1ccccc1)n2-c1ccccc1` [L103-Cs], for which the “dissolution test, 7.5 g/L” value (1-Heptanol) is “○”. Regarding `Oc1cccc2oc3cc(-c4ccc5ccc6cccnc6c5n4)cnc3c12` [L301-Cs], the “dissolution test, 5 g/L” value (1-Heptanol, 5 g/L) was “○”. In addition, the “dissolution test, 7.5 g/L” value was “Δ” (1-Heptanol) and “○” (2-Methoxyethanol). Besides, the “dissolution test, 15 g/L” value (2-Methoxyethanol) was “○”. Take `Oc1cccc2c1nc(-c1ccccc1)n2-c1cccc(-c2ccc3ccc4cccnc4c3n2)c1` [L101-Rb]: the “dissolution test, 7.5 g/L” value (1-Heptanol) is reported as “○”.

On to `O=P(c1ccccc1)(c1ccc2ccc3cccnc3c2n1)c1ccc(O)c2c1oc1cccnc12` (stereo not drawn) [L302-Li], for which, where the note is “1-Heptanol”, the “dissolution test, 7.5 g/L” value is listed as “○” and the “dissolution test, 15 g/L” value is on record as “○”. Take `Oc1cccc2c1nc(-c1ccccc1)n2-c1ccc2ccc3cccnc3c2n1` [L102-Cs]: the “dissolution test, 7.5 g/L” value (1-Heptanol) is reported as “○”. Turning to `O=P(c1ccccc1)(c1ccc2ccc3cccnc3c2n1)c1ccc(O)c2c1oc1cccnc12` (stereo not drawn) [L302-Cs], for the setting “1-Heptanol”, the “dissolution test, 7.5 g/L” value is “○” and the “dissolution test, 15 g/L” value is given as “○”.

For the molecule `O=P(c1ccccc1)(c1ccccc1)c1ccc2ccc3ccc(-c4ccc(O)c5c4oc4cccnc45)nc3c2n1` [L303-Cs], for the setting “1-Heptanol”, the “dissolution test, 7.5 g/L” value is given as “○”.

The values are drawn from patent US20220344599A1, “METAL COMPLEX AND ELECTRON TRANSPORTING MATERIAL COMPRISING SAME” (DYDEN CORPORATION, priority 2019, published 2022).
